Test results: patent US20110201564A1, “SUBSTITUTED 7-SULFANYLMETHYL, 7-SULFINYLMETHYL AND 7-SULFONYLMETHYL INDOLES AND USE THEREOF” (BAYER SCHERING PHARMA AKTIENGESELLSCHAFT, priority 2008, published 2011)
Where two headings read alike, the source gives them in different places.

Tests used:
CYP3A4 = molecular target: T1, CYP3A4 (Homo sapiens, UniProt P08684); test: CYP inhibition assay with human liver microsomes; assay type: in vitro ADME
T1 construct: using human liver microsomes (pool from various individuals); from tissue; host or cells: human liver microsomes (pool from various individuals)
T1 sequence (P08684 whole entry): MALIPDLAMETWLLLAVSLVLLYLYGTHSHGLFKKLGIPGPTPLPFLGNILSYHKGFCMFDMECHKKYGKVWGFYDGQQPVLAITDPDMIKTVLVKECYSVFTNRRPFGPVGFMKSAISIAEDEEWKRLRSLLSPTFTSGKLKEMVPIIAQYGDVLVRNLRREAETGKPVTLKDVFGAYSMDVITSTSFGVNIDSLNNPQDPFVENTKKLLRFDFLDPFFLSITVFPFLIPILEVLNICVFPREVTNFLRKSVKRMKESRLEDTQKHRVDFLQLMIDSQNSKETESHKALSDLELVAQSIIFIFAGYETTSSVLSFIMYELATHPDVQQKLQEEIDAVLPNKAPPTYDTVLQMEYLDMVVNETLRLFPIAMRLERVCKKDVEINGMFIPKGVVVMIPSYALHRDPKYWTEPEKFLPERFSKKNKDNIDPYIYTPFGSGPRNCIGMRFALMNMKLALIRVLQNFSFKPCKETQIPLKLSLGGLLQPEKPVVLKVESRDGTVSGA
Description: Inhibitory properties of an active ingredient on the cytochromes P450 (CYP) of the human body may entail extensive clinical effects (drug interactions) because most of the prescribed medicaments are degraded (metabolized) by these enzymes. The ones involved in this are in particular the CYP isoenzymes of the 1A and 2C families, CYP2D6 and, with a proportion of almost 50%, CYP3A4. In order to preclude or minimize these possible drug interactions (Drug-Drug Interactions, DDI), the ability of substances to be able to inhibit CYP1A2, CYP2C8, CYP2C9, CYP2D6 and CYP3A4 in humans is investigated using human liver microsomes (pool from various individuals). This takes place by measuring CYP isoform-specific metabolites formed from standard substrates such as, for example, phenacetin, amodiaquin, diclofenac, dextromethorphan, midazolam and testosterone. The inhibitory effects are investigated at six different concentrations of the test compounds (1.5, 3.1, 6.3, 12.5, 25 and 50 μM as maximum concentration or 0.6, 1.3, 2.5, 5, 10 and 20 μM as maximum concentration), comparing with the extent of the CYP isoform-specific metabolite formation of the standard substrates in the absence of the test compounds, and calculating the corresponding IC50 values. CYP isoform-specific standard inhibitors such as, for example, fluvoxamine, quercetin, sulfaphenazole, fluoxetine and ketoconazole serve as control of the results obtained. In order to obtain indications of the possible mechanism-based inhibitors (MBI) on CYP3A4, the human liver microsomes are incubated in the presence of the inhibitor to be investigated for 30 minutes before the addition of midazolam or testosterone as standard substrates of CYP3A4. A reduction in the IC50 obtained by comparison with the mixture without preincubation serves as an indicator of a mechanism-based inhibition. Mibefradil serves as positive control.
The incubations of the standard substrates with human liver microsomes (23-233 μg/mL) in the presence of the test compound (as potential inhibitor) are carried out in 96-well plates in a workstation (Tecan, Genesis, Crailsheim, Germany) at 37° C. The incubation times are 15-20 minutes. The test compounds are preferably dissolved in acetonitrile (1.0 or 2.5 mM stock solution). The 96-well plates are produced by sequential addition of a stock solution of NADP+, EDTA, glucose 6-phosphate and glucose-6-phosphate dehydrogenase in phosphate buffer (pH 7.4), the test compound, and a solution of standard substrate and human liver microsomes in phosphate buffer (pH 7.4). The total volume is 200 μl. The corresponding control incubations with and without standard inhibitor also take place on the 96-well plate. The incubations are stopped after the respective incubation time by adding 100 μl of acetonitrile in which there is a suitable internal standard. Precipitated proteins are removed by centrifugation (3000 rpm, 10 minutes, 10° C.). The resulting supernatants of the respective plates are combined on one plate and analyzed by LC-MS/MS. The […] values are generated from the resulting measured data and used to assess the inhibitory potential of the test compound.

[1] = molecular target: T2, human mineralocorticoid receptor (MR) (Homo sapiens, UniProt P08235); test: Cellular in vitro assay, GAL4-MR chimera luciferase reporter in CHO K1 cells (inhibitory MR activity); assay type: cell-based; details: antagonism vs aldosterone; CHO K1 GAL4-MR LBD luciferase reporter
T2 construct: expressed in transfected cells; host or cells: CHO K1
T2 sequence (P08235 734-984 limits assumed): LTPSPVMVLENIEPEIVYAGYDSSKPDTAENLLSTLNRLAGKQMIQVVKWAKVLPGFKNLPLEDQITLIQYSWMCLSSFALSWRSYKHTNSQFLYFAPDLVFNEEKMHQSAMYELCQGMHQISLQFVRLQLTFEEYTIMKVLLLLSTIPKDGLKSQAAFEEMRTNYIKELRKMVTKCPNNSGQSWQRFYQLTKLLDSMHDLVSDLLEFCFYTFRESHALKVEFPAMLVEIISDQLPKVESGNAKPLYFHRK
Description: (§1) 1. Cellular In Vitro Assay to Determine the Inhibitory MR Activity and MR Selectivity Compared with Other Steroid Hormone Receptors
(§2) Antagonists of the human mineralocorticoid receptor (MR) are identified, and the activity of the compounds described herein is quantified with the aid of a recombinant cell line. The cell is originally derived from a hamster ovary epithelial cell (Chinese Hamster Ovary, CHO K1, ATCC: American Type Culture Collection, VA 20108, USA).
(§3) An established chimera system in which the ligand-binding domains of human steroid hormone receptors are fused to the DNA-binding domain of the yeast transcription factor GAL4 is used in this CHO K1 cell line. The GAL4-steroid hormone receptor chimeras produced in this way are cotransfected and stably expressed with a reporter construct in the CHO cells.
(§4) To generate the GAL4-steroid hormone receptor chimeras, the GAL4 DNA-binding domain (amino acids 1-147) from the vector pFC2-dbd (from Stratagene) is cloned with the PCR-amplified ligand-binding domains of the mineralocorticoid receptor (MR, amino acids 734-985), of the progesterone receptor (PR, amino acids 680-933) and of the androgen receptor (AR, amino acids 667-919) into the vector pIRES2 (from Clontech). The reporter construct, which comprises five copies of the GAL4 binding site upstream of a thymidine kinase promoter, leads to expression of firefly luciferase (Photinus pyralis) after activation and binding of the GAL4-steroid hormone receptor chimeras by the respective specific agonists aldosterone (MR), dexamethasone (GR), progesterone (PR) and dihydrotestosterone (AR).
(§5) The MR, PR and AR cells are plated out in medium (Optimem, 2.5% FCS, 2 mM glutamine, 10 mM HEPES) in 96- (or 384- or 1536-)well microtiter plates on the day before the assay and are kept in a cell incubator (96% humidity, 5% v/v CO2, 37° C.). On the day of the assay, the substances to be tested are taken up in the abovementioned medium and added to the cells. About 10 to 30 minutes after addition of the test substances, the respective specific agonists of the steroid hormone receptors are added. After a further incubation time of 5 to 6 hours, the luciferase activity is measured with the aid of a video camera. The measured relative light units as a function of the substance concentration result in a sigmoidal stimulation curve. The IC50 values are calculated with the aid of the GraphPad PRISM computer program (Version 3.02).

[2] = molecular target: T3, progesterone receptor (PR) (Homo sapiens, UniProt P06401); test: Cellular in vitro assay, GAL4-PR chimera luciferase reporter in CHO K1 cells (selectivity); assay type: cell-based; details: antagonism vs progesterone; CHO K1 GAL4-PR LBD luciferase reporter
T3 construct: of the progesterone receptor (PR, amino acids 680-933); expressed in transfected cells; host or cells: CHO K1
T3 sequence (P06401 680-933): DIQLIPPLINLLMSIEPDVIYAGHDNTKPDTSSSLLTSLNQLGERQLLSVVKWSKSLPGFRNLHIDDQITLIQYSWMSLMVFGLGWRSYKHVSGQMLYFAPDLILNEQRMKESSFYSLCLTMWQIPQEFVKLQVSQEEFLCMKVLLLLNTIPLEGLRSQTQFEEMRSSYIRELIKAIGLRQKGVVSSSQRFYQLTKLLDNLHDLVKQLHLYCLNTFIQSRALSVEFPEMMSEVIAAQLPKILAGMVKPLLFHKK
Description: as §1, §2, §3, §4, §5

androgen receptor (AR) = molecular target: T4, androgen receptor (AR) (Homo sapiens, UniProt P10275); test: Cellular in vitro assay, GAL4-AR chimera luciferase reporter in CHO K1 cells (selectivity); assay type: cell-based; details: antagonism vs dihydrotestosterone; CHO K1 GAL4-AR LBD luciferase reporter
T4 construct: of the androgen receptor (AR, amino acids 667-919); expressed in transfected cells; host or cells: CHO K1
T4 sequence (P10275 668-920): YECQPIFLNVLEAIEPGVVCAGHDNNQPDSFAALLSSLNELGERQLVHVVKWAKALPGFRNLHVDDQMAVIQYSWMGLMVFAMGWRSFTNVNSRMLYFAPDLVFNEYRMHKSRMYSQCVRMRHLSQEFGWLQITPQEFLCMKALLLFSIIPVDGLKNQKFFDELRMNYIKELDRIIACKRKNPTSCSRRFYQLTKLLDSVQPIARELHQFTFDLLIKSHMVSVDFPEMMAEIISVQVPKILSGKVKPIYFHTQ
Description: as §1, §2, §3, §4, §5

[3] = 30 min preincubation with test compound before substrate, read-out: CYP 3A4 Preincubation, 30 min.
[4] = without preincubation, read-out: CYP 3A4 Coincubation

IC50 (CYP3A4; [3]) [µM]	IC50 (CYP3A4; [4]) [µM]	IC50 [1] [µM]	IC50 [2] [µM]	IC50 (androgen receptor (AR)) [µM]	Compound
> 20	> 20	0.17	–	–	CS(=O)(=O)Cc1cccc2c(C(c3ccc(C(F)(F)F)cc3)C3CC3)c[nH]c12 (stereo not shown) [Example 244, 3-{Cyclopropyl[4-(trifluoromethyl)phenyl]methyl}-7-[(methylsulfonyl)methyl]-1H-indole]
18.2	> 20	0.024	10	–	CS(=O)(=O)Cc1cccc2c(C(c3ccc(Cl)cc3)C3CC3C#N)c[nH]c12 (stereo not shown) [Example 276, 2-[(4-Chlorophenyl){7-[(methylsulfonyl)methyl]-1H-indol-3-yl}methyl]cyclopropanecarbonitrile]
–	–	0.12	8.13	6.94	C[S+]([O-])Cc1cccc2c(C(C)(c3ccc(Cl)cc3F)C3CC3)c[nH]c12 (mixture of isomers) [Example 124, 3-[1-(4-Chloro-2-fluorophenyl)-1-cyclopropylethyl]-7-[(methylsulfinyl)methyl]-1H-indole]
–	–	0.012	7.53	0.52	CS(=O)(=O)Cc1cccc2c(C(c3ccc(Cl)cc3Cl)C3CC3(F)F)c[nH]c12 (single isomer, unassigned) [Example 325-1-1, 3-[(2,4-Dichlorophenyl)(2,2-difluorocyclopropyl)methyl]-7-[(methylsulfonyl)methyl]-1H-indole]
–	–	0.21	5.81	7.53	C[S+]([O-])Cc1cc(F)cc2c(C(CCC#N)c3ccc(Cl)cc3Cl)c[nH]c12 (mixture of isomers) [Example 82, 4-(2,4-Dichlorophenyl)-4-{5-fluoro-7-[(methylsulfinyl)methyl]-1H-indol-3-yl}butanonitrile]
–	–	0.42	6.59	5.22	CS(=O)(=O)Cc1cccc2c(C(CCC#N)c3ccc4ccccc4c3)c[nH]c12 (stereo not shown) [Example 69, 4-{7-[(Methylsulfonyl)methyl]-1H-indol-3-yl}-4-(naphthalen-2-yl)butanonitrile]
–	–	0.018	2.14	3.39	CCC(CCC#N)(c1ccc(Cl)cc1)c1c[nH]c2c(CSC)cccc12 (stereo not shown) [Example 157, 4-(4-Chlorophenyl)-4-{7-[(methylsulfanyl)methyl]-1H-indol-3-yl}hexanonitrile]
–	–	0.1	8.56	5.01	CSCc1cccc2c(C(c3ccc(F)cc3)c3ccc(Cl)cc3F)c[nH]c12 (stereo not shown) [Example 104, 3-[(4-Chloro-2-fluorophenyl)(4-fluorophenyl)methyl]-7-[(methylsulfanyl)methyl]-1H-indole]
–	–	0.03	4.5	2.52	CC(c1ccc(Cl)cc1F)(c1c[nH]c2c(CS(C)(=O)=O)cccc12)C1CC1 (single isomer, unassigned) [Example 111-1, 3-[1-(4-Chloro-2-fluorophenyl)-1-cyclopropylethyl]-7-[(methylsulfonyl)methyl]-1H-indole]
–	–	0.02	9.16	2.16	CS(=O)(=O)Cc1cccc2c(C3(C4CC4)CCc4cc(F)ccc43)c[nH]c12 (single isomer, unassigned) [Example 107-1, 3-(1-Cyclopropyl-5-fluoro-2,3-dihydro-1H-inden-1-yl)-7-[(methylsulfonyl)methyl]-1H-indole]
–	–	0.16	3.14	1.6	CSCc1cc(F)cc2c(C3(C4CC4)CCc4cc(F)ccc43)c[nH]c12 (stereo not shown) [Example 94, 3-(1-Cyclopropyl-5-fluoro-2,3-dihydro-1H-inden-1-yl)-5-fluoro-7-[(methylsulfanyl)methyl]-1H-indole]
–	–	0.007	4.31	3.8	CCC(CCC#N)(c1ccc(Cl)cc1)c1c[nH]c2c(CS(C)(=O)=O)cccc12 (single isomer, unassigned) [Enantiomer 172-1, 4-(4-Chlorophenyl)-4-{7-[(methylsulfonyl)methyl]-1H-indol-3-yl}hexanonitrile]
–	–	0.14	4.58	6.44	CCC(CCO)(c1ccc(Cl)cc1)c1c[nH]c2c(C[S+](C)[O-])cccc12 (mixture of isomers) [Example 143, 3-(4-Chlorophenyl)-3-{7-[(methylsulfinyl)methyl]-1H-indol-3-yl}pentan-1-ol]
–	–	0.04	4.81	3.76	CS(=O)(=O)Cc1cc(F)cc2c(C(CCC#N)c3ccc(Cl)cc3Cl)c[nH]c12 (stereo not shown) [Example 63, 4-(2,4-Dichlorophenyl)-4-{5-fluoro-7-[(methylsulfonyl)methyl]-1H-indol-3-yl}butanonitrile]
